Laboratory results published in ChEMBL document CHEMBL1201862, “PubChem BioAssay data set” (2004).
Active and inactive are the calls of the source.

Assays:
cells = format: functional, cell-based
[1] = target: T1, Serine/threonine-protein phosphatase (Candida dubliniensis (strain CD36 / CBS 7987 / NCPF 3949 / NRRLY-17841) (Yeast), UniProt B9W6M3); assay: calcineurin pathway inhibitors in yeast reporter, dose response, S. cerevisiae, CDRE-lacZ, luminescence, secondary (AID 2388); format: functional, cell-based;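 further: yeast reporter cells carrying a calcineurin-responsive lacZ construct stimulated with calcium chloride; luminescent beta-galactosidase reporter signal in whole cells rather than isolated phosphatase activity; potency for inhibition where a drop in reporter signal means calcineurin blockade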
T1 sequence (B9W6M3 whole entry): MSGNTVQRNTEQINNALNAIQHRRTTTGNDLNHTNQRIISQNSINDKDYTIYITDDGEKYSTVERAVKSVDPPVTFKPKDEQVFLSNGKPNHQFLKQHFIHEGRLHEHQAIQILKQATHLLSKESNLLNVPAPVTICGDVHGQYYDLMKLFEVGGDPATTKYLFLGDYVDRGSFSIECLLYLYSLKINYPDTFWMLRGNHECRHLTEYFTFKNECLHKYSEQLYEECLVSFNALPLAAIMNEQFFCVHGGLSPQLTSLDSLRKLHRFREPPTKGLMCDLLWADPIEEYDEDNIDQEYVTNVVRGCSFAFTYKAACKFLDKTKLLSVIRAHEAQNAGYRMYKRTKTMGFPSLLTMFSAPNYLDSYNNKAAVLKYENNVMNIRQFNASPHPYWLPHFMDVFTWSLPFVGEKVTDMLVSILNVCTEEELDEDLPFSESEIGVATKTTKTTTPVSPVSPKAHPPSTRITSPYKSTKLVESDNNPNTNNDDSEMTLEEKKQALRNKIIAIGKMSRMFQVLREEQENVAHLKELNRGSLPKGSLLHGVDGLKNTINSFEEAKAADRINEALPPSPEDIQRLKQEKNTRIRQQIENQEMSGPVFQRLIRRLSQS

[2] = target: Guanyl-specific ribonuclease T1 (Aspergillus oryzae (strain ATCC 42149 / RIB 40), UniProt P00651); assay: RNase T1 inhibitors, dose response, counter-screen for TPT1 inhibitor project, biochemical, fluorescence polarization, 1536-well (AID 2167)
Chain of Guanyl-specific ribonuclease T1 (P00651 whole entry): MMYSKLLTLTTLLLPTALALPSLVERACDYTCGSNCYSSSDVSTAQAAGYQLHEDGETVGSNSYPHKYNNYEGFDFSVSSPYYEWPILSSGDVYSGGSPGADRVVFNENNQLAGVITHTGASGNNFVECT

Large T antigen = Large T antigen (Simian virus 40, UniProt P03070); format: functional, Betapolyomavirus macacae;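 further: Confirmatory-stage PubChem screen for compounds that inhibit SV40 T antigen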
Chain of Large T antigen (P03070 whole entry): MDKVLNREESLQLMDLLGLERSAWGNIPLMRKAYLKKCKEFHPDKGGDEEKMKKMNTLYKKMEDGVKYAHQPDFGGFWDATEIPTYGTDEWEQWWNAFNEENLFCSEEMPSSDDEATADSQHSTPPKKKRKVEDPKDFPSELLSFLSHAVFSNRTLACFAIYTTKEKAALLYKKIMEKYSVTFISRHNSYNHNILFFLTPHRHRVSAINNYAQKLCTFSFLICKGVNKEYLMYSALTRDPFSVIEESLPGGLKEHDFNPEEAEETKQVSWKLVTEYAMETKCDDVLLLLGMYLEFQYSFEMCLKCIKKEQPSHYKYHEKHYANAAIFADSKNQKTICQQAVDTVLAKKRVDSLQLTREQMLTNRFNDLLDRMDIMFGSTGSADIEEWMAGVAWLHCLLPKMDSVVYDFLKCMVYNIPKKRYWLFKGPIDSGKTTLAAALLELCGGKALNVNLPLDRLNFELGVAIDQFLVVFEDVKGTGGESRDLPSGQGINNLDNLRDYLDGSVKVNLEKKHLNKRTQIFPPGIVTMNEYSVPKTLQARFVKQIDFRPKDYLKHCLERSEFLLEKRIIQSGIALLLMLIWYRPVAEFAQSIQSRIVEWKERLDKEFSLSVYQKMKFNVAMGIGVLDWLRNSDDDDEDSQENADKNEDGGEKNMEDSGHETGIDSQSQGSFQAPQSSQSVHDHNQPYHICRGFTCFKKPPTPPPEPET

Cytochrome P450 2C19 = Cytochrome P450 2C19 (Homo sapiens, UniProt P33261); assay: Cytochrome panel assay with activity outcomes. Panel member name: p450-cyp2c19 Compounds with AC50 equal or less than 10 uM are considered active; format: functional; conditions: read-out: AC50
Chain of Cytochrome P450 2C19 (P33261 whole entry): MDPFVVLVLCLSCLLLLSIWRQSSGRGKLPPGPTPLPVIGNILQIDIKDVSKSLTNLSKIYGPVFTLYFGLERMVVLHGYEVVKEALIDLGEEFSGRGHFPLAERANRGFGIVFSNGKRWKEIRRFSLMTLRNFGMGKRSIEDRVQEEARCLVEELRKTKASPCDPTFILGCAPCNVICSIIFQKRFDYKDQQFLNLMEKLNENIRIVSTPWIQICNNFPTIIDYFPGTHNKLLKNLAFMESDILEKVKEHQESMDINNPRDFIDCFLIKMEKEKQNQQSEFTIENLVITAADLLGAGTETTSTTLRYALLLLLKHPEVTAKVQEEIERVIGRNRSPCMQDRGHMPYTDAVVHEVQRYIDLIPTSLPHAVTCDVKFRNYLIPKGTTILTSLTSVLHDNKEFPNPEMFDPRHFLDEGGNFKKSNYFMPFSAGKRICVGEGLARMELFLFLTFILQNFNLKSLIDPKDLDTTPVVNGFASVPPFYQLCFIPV

[3] = target: T2, Histone-lysine N-methyltransferase NSD2 (Homo sapiens, UniProt O96028); format: biochemical
T2 sequence (O96028 whole entry): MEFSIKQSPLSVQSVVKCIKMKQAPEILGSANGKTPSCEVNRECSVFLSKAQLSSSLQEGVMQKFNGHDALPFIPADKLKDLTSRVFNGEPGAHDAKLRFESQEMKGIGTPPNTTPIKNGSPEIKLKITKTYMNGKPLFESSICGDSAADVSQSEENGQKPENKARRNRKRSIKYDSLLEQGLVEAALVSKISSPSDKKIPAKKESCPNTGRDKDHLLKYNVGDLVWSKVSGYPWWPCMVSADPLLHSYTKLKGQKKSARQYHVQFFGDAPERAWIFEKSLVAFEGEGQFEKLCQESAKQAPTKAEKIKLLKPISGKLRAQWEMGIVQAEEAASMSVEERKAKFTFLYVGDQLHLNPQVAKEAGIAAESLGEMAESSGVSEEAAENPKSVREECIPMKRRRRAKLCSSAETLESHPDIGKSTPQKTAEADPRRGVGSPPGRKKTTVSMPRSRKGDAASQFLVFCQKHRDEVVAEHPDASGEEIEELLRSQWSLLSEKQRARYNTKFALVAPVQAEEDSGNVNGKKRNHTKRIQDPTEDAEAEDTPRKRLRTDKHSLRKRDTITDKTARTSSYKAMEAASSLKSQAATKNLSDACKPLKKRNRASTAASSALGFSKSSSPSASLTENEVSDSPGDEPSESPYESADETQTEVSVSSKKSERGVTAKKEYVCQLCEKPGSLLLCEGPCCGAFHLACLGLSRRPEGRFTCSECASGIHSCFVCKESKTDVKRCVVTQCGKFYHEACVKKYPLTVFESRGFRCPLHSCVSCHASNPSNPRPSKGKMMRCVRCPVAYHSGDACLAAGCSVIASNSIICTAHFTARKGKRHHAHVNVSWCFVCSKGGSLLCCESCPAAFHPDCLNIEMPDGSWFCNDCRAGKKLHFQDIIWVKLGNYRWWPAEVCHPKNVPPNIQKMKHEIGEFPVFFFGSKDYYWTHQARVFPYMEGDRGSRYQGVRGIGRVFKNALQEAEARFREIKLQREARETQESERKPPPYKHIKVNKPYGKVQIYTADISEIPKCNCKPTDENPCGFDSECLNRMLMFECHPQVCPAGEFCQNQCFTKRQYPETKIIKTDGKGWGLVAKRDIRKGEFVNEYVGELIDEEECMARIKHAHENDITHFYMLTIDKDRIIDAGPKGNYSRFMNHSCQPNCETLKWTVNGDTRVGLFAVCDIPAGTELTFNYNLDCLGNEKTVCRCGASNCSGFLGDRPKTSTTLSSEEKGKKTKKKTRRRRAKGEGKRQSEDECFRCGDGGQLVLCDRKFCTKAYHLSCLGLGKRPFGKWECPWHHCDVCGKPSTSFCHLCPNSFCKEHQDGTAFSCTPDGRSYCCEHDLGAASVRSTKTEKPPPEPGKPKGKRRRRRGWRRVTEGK

For `Oc1ccc2ccccc2c1/C=N/Nc1nnc(-c2ncc[nH]2)c2ccccc12`, the EC50 (cells) was 82.8 µM (active) and the EC50 [1] was > 180 µM (inactive).

For `CC(C)C(C(=O)O)N1C(=O)/C(=C/C=C/c2ccco2)SC1=S` (stereo unspecified), the IC50 [2] was 9.85 µM (active), the IC50 (Large T antigen) was 24.6 µM (active) and the AC50 (Cytochrome P450 2C19) was 10 µM (inconclusive).

With `O=C1CCN2C=Nc3cccc4ccc1c2c34` the AC50 [3] was 9.91 µM (active).
